One assay has as its target CDK2/Cyclin E1 complex (Homo sapiens, UniProt P24941). Briefly: CDK2 kinase inhibition assay (Caliper/LabChip EZ Reader).
Another assay has as its system COV318 cells. Briefly: Inhibition of cell proliferation, CyQUANT Direct, COV318. It counts as cell-based. To be noted: Homo sapiens; COV318 ovarian cancer cells, 72-hour; read-out: COV 318 proliferation calculated IC50.
A further assay has as its target CDK9/Cyclin T1 complex (Homo sapiens, UniProt P50750). Briefly: CDK9 kinase inhibition assay (Caliper/LabChip EZ Reader).
The target of assay [1] is CDK12 (aa686-1082)/Cyclin K complex (Homo sapiens, UniProt Q9NYV4). Briefly: CDK12 kinase inhibition assay (Caliper/LabChip EZ Reader).
Assay [2] concerns the target CDK7/Cyclin H/MAT1 complex (Homo sapiens, UniProt P50613). Briefly: CDK7 kinase inhibition assay (Caliper/LabChip EZ Reader).
Experimental: (§1) Compounds of the invention were assayed for inhibition of CDK7, CDK9, CDK12, and CDK2 activity at Biortus Biosciences (Jiangyin, Jiangsu Province, P.R. of China) using kinase assays for each CDK developed with a Caliper/LabChip EZ Reader (Perkin Elmer, Waltham, MA).
(§2) Furthermore, the CDK9 inhibition assay used CDK9/Cyclin T1 complex (8 nM) and “5-FAM-CDK9tide” peptide substrate (2 μM, synthesized fluorophore-labeled peptide with the following sequence: 5-FAM-GSRTPMY-NH2 (SEQ ID NO:2) where 5-FAM is defined above and NH2 signifies a C-terminal amide) with 10 mM MgCl2 in the buffer composition listed above. The CDK12 inhibition assay used CDK12 (aa686-1082)/Cyclin K complex (50 nM) and “5-FAM-CDK9tide” (2 μM) as defined above, with 2 mM MgCl2 in the buffer composition above. Additionally, the CDK2 inhibition assay used CDK2/Cyclin E1 complex (0.5 nM) and “5-FAM-CDK7tide” (2 μM) as defined above, with 2 mM MgCl2 in the buffer composition listed above.
(§3) The incubation period at 27° C. for each CDK inhibition assay was chosen such that the fraction of phosphorylated peptide product produced in each assay, relative to the total peptide concentration, was approximately 20% (±5%) for the uninhibited kinase (35 min. for CDK7, 35 min. for CDK2, 3 hr. for CDK12, 15 min. for CDK9).
The next assay has as its system HCC70 cells. Briefly: Inhibition of cell proliferation, CyQUANT Direct, HCC70. In kind it is cell-based, human. To be noted: Homo sapiens, read-out: HCC 70 proliferation calculated IC50.
The next assay has as its system MB453 cells. Briefly: Inhibition of cell proliferation, CyQUANT Direct, MB453. In kind it is cell-based, human. To be noted: Homo sapiens, read-out: MB 453 proliferation calculated IC50.
The subject of a further assay is COV504 cells. In words: Inhibition of cell proliferation, CyQUANT Direct, COV504. To be noted: Homo sapiens; COV504 ovarian cancer cells, 72-hour; read-out: COV 504 proliferation calculated IC50. It counts as cell-based.
Setting [3] is: HCC70 triple negative breast cancer cells, 72-hour.
The mark [4] stands for this setting: MB453 triple negative breast cancer cells, 72-hour.

Like-named read-outs stand apart in the source and are kept apart here.

Chain of CDK9/Cyclin T1 complex (P50750 whole entry, the tested form may be a part): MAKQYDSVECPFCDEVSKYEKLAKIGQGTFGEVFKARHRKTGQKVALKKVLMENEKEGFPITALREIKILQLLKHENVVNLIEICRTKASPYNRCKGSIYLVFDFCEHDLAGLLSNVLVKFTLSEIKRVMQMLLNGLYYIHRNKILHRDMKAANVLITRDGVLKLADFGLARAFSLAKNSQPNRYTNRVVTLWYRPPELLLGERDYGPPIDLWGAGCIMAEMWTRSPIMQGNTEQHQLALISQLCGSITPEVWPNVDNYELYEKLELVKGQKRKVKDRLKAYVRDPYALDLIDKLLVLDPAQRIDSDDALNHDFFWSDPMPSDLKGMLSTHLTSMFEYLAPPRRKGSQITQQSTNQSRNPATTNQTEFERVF
Chain of CDK9/Cyclin T1 complex (O60563 whole entry partner, the tested form may be a part): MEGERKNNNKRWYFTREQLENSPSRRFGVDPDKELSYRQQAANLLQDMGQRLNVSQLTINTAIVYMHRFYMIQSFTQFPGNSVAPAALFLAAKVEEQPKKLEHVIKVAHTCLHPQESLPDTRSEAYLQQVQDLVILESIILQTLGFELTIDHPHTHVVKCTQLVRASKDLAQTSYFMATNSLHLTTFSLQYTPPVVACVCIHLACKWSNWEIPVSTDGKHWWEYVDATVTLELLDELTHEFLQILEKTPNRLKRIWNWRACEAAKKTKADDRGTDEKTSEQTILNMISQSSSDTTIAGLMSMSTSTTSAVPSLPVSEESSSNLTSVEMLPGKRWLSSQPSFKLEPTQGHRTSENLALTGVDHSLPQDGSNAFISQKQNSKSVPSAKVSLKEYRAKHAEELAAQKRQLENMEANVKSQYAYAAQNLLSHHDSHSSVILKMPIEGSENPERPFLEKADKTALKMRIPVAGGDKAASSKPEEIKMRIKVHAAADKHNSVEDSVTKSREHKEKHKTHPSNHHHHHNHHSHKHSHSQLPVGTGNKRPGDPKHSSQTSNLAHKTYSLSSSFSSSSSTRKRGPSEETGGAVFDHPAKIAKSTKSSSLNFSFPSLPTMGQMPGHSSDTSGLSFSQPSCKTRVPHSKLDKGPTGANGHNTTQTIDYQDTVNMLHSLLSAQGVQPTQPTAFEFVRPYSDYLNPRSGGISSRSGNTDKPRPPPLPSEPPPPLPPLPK
Chain of CDK12 (aa686-1082)/Cyclin K complex (Q9NYV4 686-1082): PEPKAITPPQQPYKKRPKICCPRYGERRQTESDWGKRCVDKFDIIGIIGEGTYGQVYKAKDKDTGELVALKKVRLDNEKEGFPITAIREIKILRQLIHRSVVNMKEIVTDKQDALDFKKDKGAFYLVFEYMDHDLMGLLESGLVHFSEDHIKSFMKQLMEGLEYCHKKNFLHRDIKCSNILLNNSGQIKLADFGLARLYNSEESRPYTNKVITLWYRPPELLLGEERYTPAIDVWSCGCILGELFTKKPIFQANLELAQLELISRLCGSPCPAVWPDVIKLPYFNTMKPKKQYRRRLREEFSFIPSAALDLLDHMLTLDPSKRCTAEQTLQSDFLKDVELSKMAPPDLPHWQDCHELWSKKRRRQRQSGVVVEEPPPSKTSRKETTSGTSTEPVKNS
Chain of CDK12 (aa686-1082)/Cyclin K complex (O75909 whole entry partner, the tested form may be a part): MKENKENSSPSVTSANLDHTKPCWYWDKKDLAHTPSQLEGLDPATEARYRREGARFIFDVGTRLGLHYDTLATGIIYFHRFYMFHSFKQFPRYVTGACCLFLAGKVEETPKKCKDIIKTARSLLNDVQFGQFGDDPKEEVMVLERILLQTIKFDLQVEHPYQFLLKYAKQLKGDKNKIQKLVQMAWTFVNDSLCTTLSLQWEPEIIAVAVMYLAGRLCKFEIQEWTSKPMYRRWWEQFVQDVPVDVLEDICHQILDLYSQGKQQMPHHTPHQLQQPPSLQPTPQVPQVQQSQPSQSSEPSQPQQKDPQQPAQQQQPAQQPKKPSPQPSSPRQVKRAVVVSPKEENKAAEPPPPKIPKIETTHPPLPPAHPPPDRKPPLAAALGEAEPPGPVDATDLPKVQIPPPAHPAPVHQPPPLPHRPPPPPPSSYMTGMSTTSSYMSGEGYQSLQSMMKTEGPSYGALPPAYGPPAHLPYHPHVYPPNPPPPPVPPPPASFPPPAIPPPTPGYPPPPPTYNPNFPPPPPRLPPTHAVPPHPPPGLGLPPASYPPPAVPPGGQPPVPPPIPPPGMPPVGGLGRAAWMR
Chain of CDK7/Cyclin H/MAT1 complex (P50613 whole entry): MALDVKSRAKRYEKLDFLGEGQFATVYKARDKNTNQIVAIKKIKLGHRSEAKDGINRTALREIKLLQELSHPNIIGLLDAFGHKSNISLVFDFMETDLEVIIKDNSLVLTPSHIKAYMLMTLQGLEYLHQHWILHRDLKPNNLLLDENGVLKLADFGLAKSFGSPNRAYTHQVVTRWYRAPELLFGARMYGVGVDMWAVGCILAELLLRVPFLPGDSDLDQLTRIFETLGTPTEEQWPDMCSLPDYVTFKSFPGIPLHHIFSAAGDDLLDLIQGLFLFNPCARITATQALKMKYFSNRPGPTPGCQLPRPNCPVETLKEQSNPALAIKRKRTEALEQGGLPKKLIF
Chain of CDK7/Cyclin H/MAT1 complex (P51946 whole entry partner): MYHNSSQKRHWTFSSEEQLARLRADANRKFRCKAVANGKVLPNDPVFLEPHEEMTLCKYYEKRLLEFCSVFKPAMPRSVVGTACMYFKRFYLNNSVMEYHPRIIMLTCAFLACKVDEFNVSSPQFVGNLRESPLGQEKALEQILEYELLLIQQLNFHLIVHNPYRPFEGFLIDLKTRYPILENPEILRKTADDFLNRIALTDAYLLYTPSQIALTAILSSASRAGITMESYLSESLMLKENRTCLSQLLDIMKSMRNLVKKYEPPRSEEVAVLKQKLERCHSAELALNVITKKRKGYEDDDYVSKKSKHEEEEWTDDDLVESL
Chain of CDK7/Cyclin H/MAT1 complex (P51948 whole entry partner): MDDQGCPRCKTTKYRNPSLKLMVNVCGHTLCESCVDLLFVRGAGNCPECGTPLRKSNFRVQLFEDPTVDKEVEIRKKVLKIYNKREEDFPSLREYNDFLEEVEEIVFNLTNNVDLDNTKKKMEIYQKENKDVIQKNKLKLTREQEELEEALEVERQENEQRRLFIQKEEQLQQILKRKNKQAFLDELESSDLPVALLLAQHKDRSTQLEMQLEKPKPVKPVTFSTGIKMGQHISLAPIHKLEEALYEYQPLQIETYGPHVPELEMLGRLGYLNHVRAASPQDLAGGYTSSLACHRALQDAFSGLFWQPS
Experimental for CDK9/Cyclin T1 complex: as §1, §2, §3

Regarding `Cc1noc(C)c1-c1ccc2c(-c3nc(N[C@@H]4C[C@H]5CC[N@](CC5)C4)ncc3C(F)(F)F)cn(S(=O)(=O)c3ccccc3)c2n1` [Compound 142, (3R)—N-[4-[1-(benzenesulfonyl)-6-(3,5-dimethylisoxazol-4-yl)pyrrolo[2,3-b]pyridin-3-yl]-5-(trifluoromethyl)pyrimidin-2-yl]-1-azabicyclo[3.2.2]nonan-3-amine], the IC50 against CDK2/Cyclin E1 complex was > 500 nM; with COV318 cells, 100 to 500 nM; against CDK9/Cyclin T1 complex it was > 500 nM; in assay [1], > 500 nM; in assay [2], < 30 nM; in the assay on HCC70 cells (setting [3]), 100 to 500 nM. The IC50 with MB453 cells (setting [4]) and with COV504 cells was 100 to 500 nM throughout.

Take `Cc1noc(C)c1-c1ccc2c(-c3nc(N[C@H]4CCC[C@@H]4N4CCCC4)ncc3C(F)(F)F)c[nH]c2c1` [Compound 143, 4-[6-(3,5-dimethylisoxazol-4-yl)-1H-indol-3-yl]-N-[(1S,2S)-2-pyrrolidin-1-ylcyclopentyl]-5-(trifluoromethyl)pyrimidin-2-amine]: the IC50 against CDK2/Cyclin E1 complex is > 500 nM; in the assay on COV318 cells, 500 to 2000 nM; against CDK9/Cyclin T1 complex it was > 500 nM; in assay [1] it was > 500 nM; in assay [2] it was < 30 nM; in the assay with HCC70 cells (setting [3]), 100 to 500 nM. The IC50 with MB453 cells (setting [4]) and in the assay on COV504 cells was < 100 nM in each case.

Turning to `Cc1noc(C)c1-c1ccc2c(-c3nc(N[C@H]4CCCC4N4CCCC4)ncc3C(F)(F)F)c[nH]c2n1` (stereo partly drawn) [Compound 144, 4-[6-(3,5-dimethylisoxazol-4-yl)-1H-pyrrolo[2,3-b]pyridin-3-yl]-N-[(1S)-2-pyrrolidin-1-ylcyclopentyl]-5-(trifluoromethyl) pyrimidin-2-amine], the IC50 against CDK2/Cyclin E1 complex was > 500 nM; in the assay with COV318 cells it was < 100 nM; against CDK9/Cyclin T1 complex, > 500 nM; in assay [1], > 500 nM; in assay [2], < 30 nM; in the assay on HCC70 cells (setting [3]), 100 to 500 nM. Moreover, the IC50 with MB453 cells (setting [4]) and in the assay on COV504 cells was < 100 nM in each case.

For `CCN[C@H]1CCC[C@@H]1Nc1ncc(C(F)(F)F)c(-c2c[nH]c3nc(-c4c(C)noc4C)ccc23)n1` [Compound 145, (1S, 2S)—N1-[4-[6-(3,5-dimethylisoxazol-4-yl)-1H-pyrrolo [2,3-b]pyridin-3-yl]-5-(trifluoromethyl)pyrimidin-2-yl]-N2-ethyl-cyclopentane-1,2-diamine], the IC50 was > 500 nM on CDK2/Cyclin E1 complex; < 100 nM with COV318 cells; > 500 nM against CDK9/Cyclin T1 complex; > 500 nM in assay [1]; < 30 nM in assay [2]; < 100 nM with HCC70 cells (HCC70, 72 h). For the same molecule, the IC50 in the assay on MB453 cells (72 h) and in the assay with COV504 cells was < 100 nM in each case.

`Cc1noc(C)c1-c1ccc2c(-c3nc(N[C@H]4CCC[C@@H]4N4CCC4)ncc3C(F)(F)F)c[nH]c2n1` [Compound 146, N-[(1S, 2S)-2-(azetidin-1-yl)cyclopentyl]-4-[6-(3,5-dimethylisoxazol-4-yl)-1H-pyrrolo [2,3-b]pyridin-3-yl]-5-(trifluoromethyl) pyrimidin-2-amine]: the IC50 was > 500 nM on CDK2/Cyclin E1 complex; > 2000 nM in the assay with COV318 cells; > 500 nM at CDK9/Cyclin T1 complex; > 500 nM in assay [1]; < 30 nM in assay [2]; < 100 nM in the assay on HCC70 cells (HCC70, 72 h). The IC50 in the assay with MB453 cells (72 h) and in the assay on COV504 cells was < 100 nM throughout.

In the case of `Cc1noc(C)c1-c1ccc2c(-c3nc(N[C@H]4CCC[C@@H]4NCC(F)F)ncc3C(F)(F)F)c[nH]c2n1` [Compound 147, (1S, 2S)—N2-(2,2-difluoroethyl)-N1-[4-[6-(3,5-dimethylisoxazol-4-yl)-1H-pyrrolo[2,3-b]pyridin-3-yl]-5-(trifluoromethyl)pyrimidin-2-yl] cyclopentane-1,2-diamine], the IC50 at CDK2/Cyclin E1 complex is > 500 nM; in the assay with COV318 cells, > 2000 nM; on CDK9/Cyclin T1 complex it was > 500 nM; in assay [1], > 500 nM; in assay [2], < 30 nM; in the assay on HCC70 cells (setting [3]) it was 500 to 2000 nM. Also, the IC50 in the assay with MB453 cells (setting [4]) and in the assay with COV504 cells was 100 to 500 nM throughout.

With `Cc1noc(C)c1-c1ccc2c(-c3nc(N[C@H]4CCC[C@@H]4N4CC[C@@H](F)C4)ncc3C(F)(F)F)c[nH]c2n1` [Compound 148, 4-[6-(3,5-dimethylisoxazol-4-yl)-1H-pyrrolo[2,3-b]pyridin-3-yl]-N-[(1S,2S)-2-[(3R)-3-fluoropyrrolidin-1-yl]cyclopentyl]-5-(trifluoromethyl)pyrimidin-2-amine], the IC50 at CDK2/Cyclin E1 complex is > 500 nM; in the assay on COV318 cells, > 2000 nM; at CDK9/Cyclin T1 complex, > 500 nM; in assay [1] it was > 500 nM; in assay [2] it was < 30 nM; with HCC70 cells (setting [3]), 100 to 500 nM. The figures for the IC50 with MB453 cells (setting [4]) and in the assay with COV504 cells were 100 to 500 nM and < 100 nM, respectively.

Take `Cc1noc(C)c1-c1ccc2c(-c3nc(N[C@H]4CCC[C@@H]4N4CC[C@H](F)C4)ncc3C(F)(F)F)c[nH]c2n1` [Compound 150, 4-[6-(3,5-dimethylisoxazol-4-yl)-1H-pyrrolo[2,3-b]pyridin-3-yl]-N-[(1S,2S)-2-[(3S)-3-fluoropyrrolidin-1-yl]cyclopentyl]-5-(trifluoromethyl)pyrimidin-2-amine]: the IC50 is > 500 nM at CDK2/Cyclin E1 complex; > 2000 nM in the assay on COV318 cells; > 500 nM against CDK9/Cyclin T1 complex; > 500 nM in assay [1]; 30 to 100 nM in assay [2]; 500 to 2000 nM in the assay with HCC70 cells (setting [3]). In addition, the IC50 with MB453 cells (setting [4]) is > 2000 nM; with COV504 cells, 500 to 2000 nM.

With `Cc1noc(C)c1-c1ccc2c(-c3nc(N[C@H]4CCC[C@@H]4NCCF)ncc3C(F)(F)F)c[nH]c2n1` [Compound 151, (1S,2S)—N1-[4-[6-(3,5-dimethylisoxazol-4-yl)-1H-pyrrolo[2,3-b]pyridin-3-yl]-5-(trifluoromethyl)pyrimidin-2-yl]-N2-(2-fluoroethyl)cyclopentane-1,2-diamine], the IC50 against CDK2/Cyclin E1 complex was > 500 nM; in the assay with COV318 cells, > 2000 nM; on CDK9/Cyclin T1 complex it was > 500 nM; in assay [1], > 500 nM; in assay [2] it was < 30 nM; with HCC70 cells (setting [3]), < 100 nM. For the same molecule, the IC50 with MB453 cells (setting [4]) is 100 to 500 nM; with COV504 cells, < 100 nM.

For `Cc1noc(C)c1-c1ccc2c(-c3nc(N[C@H]4CCC[C@@H]4NCCO)ncc3C(F)(F)F)c[nH]c2n1` [Compound 154, 2-[[(1S,2S)-2-[[4-[6-(3,5-dimethylisoxazol-4-yl)-1H-pyrrolo [2,3-b]pyridin-3-yl]-5-(trifluoromethyl)pyrimidin-2-yl]amino]cyclopentyl]amino]ethanol], the IC50 against CDK2/Cyclin E1 complex was > 500 nM; in the assay with COV318 cells, 100 to 500 nM; on CDK9/Cyclin T1 complex, > 500 nM; in assay [1], > 500 nM; in assay [2], < 30 nM; in the assay on HCC70 cells (setting [3]), < 100 nM. In addition, the IC50 in the assay with MB453 cells (setting [4]) and in the assay with COV504 cells was < 100 nM in each case.

As to `Cc1noc(C)c1-c1ccc2c(-c3nc(N[C@H]4CCC[C@@H]4N4CC(F)C4)ncc3C(F)(F)F)c[nH]c2n1` [Compound 155, 4-[6-(3,5-dimethylisoxazol-4-yl)-1H-pyrrolo [2,3-b]pyridin-3-yl]-N-[(1S, 2S)-2-(3-fluoroazetidin-1-yl)cyclopentyl]-5-(trifluoromethyl) pyrimidin-2-amine], the IC50 on CDK2/Cyclin E1 complex is > 500 nM; in the assay on COV318 cells it was > 2000 nM; against CDK9/Cyclin T1 complex it was > 500 nM; in assay [1] it was > 500 nM; in assay [2] it was 100 to 500 nM; in the assay on HCC70 cells (setting [3]), > 2000 nM. The IC50 with MB453 cells (setting [4]) and in the assay with COV504 cells was > 2000 nM in each case.

As for `Cc1noc(C)c1-c1ccc2c(-c3nc(N[C@H]4CCC[C@H]4N4CC(F)C4)ncc3C(F)(F)F)c[nH]c2n1` [Compound 156, 4-[6-(3,5-dimethylisoxazol-4-yl)-1H-pyrrolo [2,3-b]pyridin-3-yl]-N-[(1S, 2R)-2-(3-fluoroazetidin-1-yl)cyclopentyl]-5-(trifluoromethyl) pyrimidin-2-amine], the IC50 was > 500 nM against CDK2/Cyclin E1 complex; > 2000 nM in the assay on COV318 cells; > 500 nM against CDK9/Cyclin T1 complex; > 500 nM in assay [1]; < 30 nM in assay [2]; 100 to 500 nM in the assay on HCC70 cells (setting [3]). Moreover, the IC50 in the assay with MB453 cells (setting [4]) is 500 to 2000 nM; in the assay on COV504 cells, 100 to 500 nM.

For `Cc1noc(C)c1-c1ccc2c(-c3nc(N[C@H]4CCC[C@@H]4N)ncc3C(F)(F)F)n[nH]c2n1` [Compound 157, (1S,2S)—N1-[4-[6-(3,5-dimethylisoxazol-4-yl)-1H-pyrazolo [3,4-b]pyridin-3-yl]-5-(trifluoromethyl)pyrimidin-2-yl]cyclopentane-1,2-diamine], the IC50 on CDK2/Cyclin E1 complex was > 500 nM; in the assay with COV318 cells it was 100 to 500 nM; at CDK9/Cyclin T1 complex, > 500 nM; in assay [1], > 500 nM; in assay [2], < 30 nM; with HCC70 cells (setting [3]), 100 to 500 nM. Besides, the IC50 in the assay with MB453 cells (setting [4]) and with COV504 cells was 100 to 500 nM in each case.

Values taken from patent US11918592B2, “Inhibitors of cyclin dependent kinase 7 (CDK7)” (Syros Pharmaceuticals, Inc., priority 2018, dated 2024).
